Test results taken from publication PMC6445163, “Design, synthesis, and evaluation of novel 2-phenylpropionic acid derivatives as dual COX inhibitory-antibacterial agents” (Journal of Enzyme Inhibition and Medicinal Chemistry, 2017).
In brackets after ≈: the same amount, converted by molar mass.

Legend:
COX-2 = biological target: T1, COX-2 (Homo sapiens, UniProt P35354); experiment: fluorometric COX-2 inhibitor screening kit assay; format: biochemical; details: 25 °C
T1 construct: purchased Biovision K547-100
T1 sequence (P35354 18-604): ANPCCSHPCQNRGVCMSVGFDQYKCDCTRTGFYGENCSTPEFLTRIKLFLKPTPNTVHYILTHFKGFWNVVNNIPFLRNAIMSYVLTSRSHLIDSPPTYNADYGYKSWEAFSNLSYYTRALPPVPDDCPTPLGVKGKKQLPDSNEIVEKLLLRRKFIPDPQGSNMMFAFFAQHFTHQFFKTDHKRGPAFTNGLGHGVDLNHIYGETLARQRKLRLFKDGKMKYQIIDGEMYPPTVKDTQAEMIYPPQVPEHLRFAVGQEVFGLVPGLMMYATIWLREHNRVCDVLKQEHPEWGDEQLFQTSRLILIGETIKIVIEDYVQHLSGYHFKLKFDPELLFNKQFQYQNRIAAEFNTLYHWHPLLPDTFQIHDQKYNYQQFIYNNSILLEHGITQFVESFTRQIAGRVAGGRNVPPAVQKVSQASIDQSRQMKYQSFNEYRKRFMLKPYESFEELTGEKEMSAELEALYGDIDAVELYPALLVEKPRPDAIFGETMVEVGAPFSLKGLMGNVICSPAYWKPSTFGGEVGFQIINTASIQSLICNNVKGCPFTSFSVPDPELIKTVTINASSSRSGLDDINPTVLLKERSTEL
Protocol: Inhibitory potency of the compounds against COX-1 and COX-2 enzymes was determined using fluorometric COX-1 and COX-2 inhibitor screening kits (Biovision, Zurich, Switzerland). Experimental protocol was followed as described in the guides of the supplier[47]^,[48]. All of the pipettings in the assay were performed by Biotek Precision robotic system (BioTek Instruments, Inc., Winooski, VT). […] Appropriate two points (T1 and T2) in the linear range of the plot were chosen, and the corresponding fluorescence values (RFU1 and RFU2) were obtained. The slope for all samples, including enzyme control (EC), by dividing the net ΔRFU (RFU2–RFU1) values by the time ΔT (T2–T1) were calculated by using following equation: % Relative inhibition=(Slope of EC-Slope of S/Slope of EC)×100
This initial in vitro assay was done with two concentrations (10^−3 and 10^−4 M) for all compounds. […] The IC50 value was calculated from the plots of enzyme activity against concentrations by applying regression analyses on GraphPad Prism Version 5 (GraphPad Software, La Jolla, CA).
Selectivity indexes (SI) were expressed as IC50 (COX-1)/IC50 (COX-2). Selectivity toward COX-2 decreases as the corresponding SI decreases while selectivity toward COX-1 isoform increases as the corresponding SI decreases.

[1] = system: Staphylococcus aureus (ATCC 25923); experiment: broth microdilution MIC (CLSI M07-A9), resazurin; format: cell-based; details: ATCC25923, 24 h
Protocol: (§1) Microbiological studies were performed according to following guides: CLSI reference […]-A9 broth microdilution method[49] for bacterial strains and EUCAST definitive (EDef 7.1) method[50] for Candida species. Synthesized compounds were tested for their in vitro growth inhibitory activity against Staphylococcus aureus (ATCC 25923), Enterococcus faecalis (ATCC 29212), Listeria monocytogenes (ATCC 1911), Klebsiella pneumoniae (NCTC 9633), Escherichia coli (ATCC 35218), E. coli (ATCC 25922) Candida albicans (ATCC 24433) Candida krusei (ATCC 6258) and Candida parapsilosis (ATCC 22019). Chloramphenicol and ketoconazole were used as control drugs. The cultures were obtained from the Mueller-Hinton broth (Difco) for the bacterial strains after overnight incubation at 37 °C. The yeasts were maintained in Roswell Park Memorial Institute (RPMI) after overnight incubation at 37 °C. […] Testing was carried out in Mueller-Hinton broth and RPMI at pH =7, and the two-fold serial dilutions technique was applied. The last well on the microplates containing only inoculated broth was kept as controls and the last well with no growth of microorganism was recorded to represent the minimum inhibitory concentration (MIC) expressed in μg/mL. For both the antibacterial and antifungal assays, the compounds were dissolved in DMSO. […] The completed plates were incubated for 24 h. At the end of the incubation, resazurin (20 μg/mL) was added into each well and plates were incubated for 2 h. MIC values were determined using a microplate reader at […]. Synthesized compounds (6a-6m) were evaluated for antimicrobial activity against various microorganisms such as Staphylococcus aureus (ATCC 25923), Enterococcus faecalis (ATCC 29212), Listeria monocytogenes (ATCC 1911), Klebsiella pneumoniae (NCTC 9633), Escherichia coli (ATCC 35218), E. coli (ATCC 25922)Candida albicans (ATCC 24433) Candida krusei (ATCC 6258) and Candida parapsilosis (ATCC 22019). […] Chloramphenicol and ketoconazole were used as standard drugs in the activity test. […] Besides, the compounds 6d, 6h, 6l and 6m indicated stronger antibacterial activity than the other compounds in the series.

[2] = system: Listeria monocytogenes (ATCC 1911); experiment: broth microdilution MIC (CLSI M07-A9), resazurin; format: cell-based; details: ATCC1911, 24 h
Protocol: as §1

[3] = system: Escherichia coli (ATCC 35218); experiment: broth microdilution MIC (CLSI M07-A9), resazurin; format: cell-based; details: ATCC35218, 24 h, read-out: MIC Ec-1
Protocol: as §1

[4] = system: Escherichia coli (ATCC 25922); experiment: broth microdilution MIC (CLSI M07-A9), resazurin; format: cell-based; details: ATCC25922, 24 h, read-out: MIC Ec-2
Protocol: as §1

[5] = system: Klebsiella pneumoniae (NCTC 9633); experiment: broth microdilution MIC (CLSI M07-A9), resazurin; format: cell-based; details: 24 h
Protocol: as §1

[6] = system: Enterococcus faecalis (ATCC 29212); experiment: broth microdilution MIC (CLSI M07-A9), resazurin; format: cell-based; details: ATCC29212, 24 h
Protocol: as §1

[7] = system: Candida krusei (ATCC 6258); experiment: broth dilution MIC (EUCAST EDef 7.1), resazurin; format: cell-based; details: Pichia kudriavzevii, ATCC6258, 24 h
Protocol: as §1

[8] = system: Candida albicans (ATCC 24433); experiment: broth dilution MIC (EUCAST EDef 7.1), resazurin; format: cell-based; details: ATCC24433, 24 h
Protocol: as §1

[9] = system: Candida parapsilosis (ATCC 22019); experiment: broth dilution MIC (EUCAST EDef 7.1), resazurin; format: cell-based; details: ATCC22019, 24 h
Protocol: as §1

Compound	IC50 (COX-2)	MIC [1]	MIC [2]	MIC [3]	MIC [4]	MIC Kp [5]	MIC [6]	MIC [7]	MIC [8]	MIC [9]	melting point
COc1ccc2sc(SCc3ccc(C(C)C(=O)O)cc3)nc2c1 (stereo not shown) [Compound 6h, 2-(4-(((5-Methoxybenzo[d]thiazol-2-yl)thio)methyl)phenyl)propanoic acid]	2.96 µM	12.5 µg/mL (≈ 34.8 µM)	6.25 µg/mL (≈ 17.4 µM)	6.25 µg/mL (≈ 17.4 µM)	12.5 µg/mL (≈ 34.8 µM)	6.25 µg/mL (≈ 17.4 µM)	12.5 µg/mL (≈ 34.8 µM)	100 µg/mL (≈ 278 µM)	50 µg/mL (≈ 139 µM)	50 µg/mL (≈ 139 µM)	166.5 to 168.2 °C
COc1ccc2[nH]c(SCc3ccc(C(C)C(=O)O)cc3)nc2c1 (stereo not shown) [Compound 6l, 2-(4-(((5-Methoxy-1H-benzo[d]imidazol-2-yl)thio)methyl)phenyl)propanoic acid]	2.34 µM	12.5 µg/mL (≈ 36.5 µM)	6.25 µg/mL (≈ 18.3 µM)	6.25 µg/mL (≈ 18.3 µM)	12.5 µg/mL (≈ 36.5 µM)	6.25 µg/mL (≈ 18.3 µM)	12.5 µg/mL (≈ 36.5 µM)	50 µg/mL (≈ 146 µM)	50 µg/mL (≈ 146 µM)	50 µg/mL (≈ 146 µM)	175.6 to 178.4 °C
